Experimental findings from US10450306B2, “Isoxazole analogs as FXR agonists and methods of use thereof” (Enanta Pharmaceuticals, Inc., priority 2016, dated 2019) are described below.

Where two headings read alike, the source gives them in different places.

The target in this experiment is T1, human FXR (NR1H4) (Homo sapiens, UniProt Q96RI1).
T1 construct: host or cells: CHO (Chinese hamster ovary) reporter cells
T1 sequence (Q96RI1 1-486): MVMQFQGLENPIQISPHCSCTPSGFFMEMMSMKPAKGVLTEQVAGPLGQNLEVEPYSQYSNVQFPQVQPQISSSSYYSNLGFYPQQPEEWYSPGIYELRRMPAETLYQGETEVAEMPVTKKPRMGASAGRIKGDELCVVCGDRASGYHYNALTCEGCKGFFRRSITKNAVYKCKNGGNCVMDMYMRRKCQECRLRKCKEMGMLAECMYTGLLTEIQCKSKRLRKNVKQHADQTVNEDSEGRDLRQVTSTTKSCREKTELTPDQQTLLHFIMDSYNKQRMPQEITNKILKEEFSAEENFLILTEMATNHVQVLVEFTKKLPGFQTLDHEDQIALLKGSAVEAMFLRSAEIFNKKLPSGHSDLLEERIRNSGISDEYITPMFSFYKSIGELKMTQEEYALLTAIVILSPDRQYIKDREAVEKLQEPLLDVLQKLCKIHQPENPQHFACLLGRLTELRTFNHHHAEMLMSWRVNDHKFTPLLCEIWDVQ
In words: Human FXR (NR1H4) Assay: Gal4 promoter driven luciferase reporter transactivation in CHO cells (Indigo Bioscience kit IB00601). For Efficacy (%): efficacy normalized to CDCA set as 100%. It counts as cell-based. From the text:
Human FXR (NR1H4) Assay Determination of a ligand mediated Gal4 promoter driven transactivation to quantify ligand binding mediated activation of FXR. FXR Reporter Assay kit purchased from Indigo Bioscience (Catalogue number: IB00601) to determine the potency and efficacy of compound developed by Enanta that can induce FXR activation. The principle application of this reporter assay system is to quantify functional activity of human FXR. The assay utilizes non-human mammalian cells, CHO (Chinese hamster ovary) cells engineered to express human NR1H4 protein (referred to as FXR). Reporter cells also incorporate the cDNA encoding beetle luciferase which catalyzes the substrates and yields photon emission. Luminescence intensity of the reaction is quantified using a plate-reading luminometer, Envision. Reporter Cells include the luciferase reporter gene functionally linked to an FXR responsive promoter. Thus, quantifying changes in luciferase expression in the treated reporter cells provides a sensitive surrogate measure of the changes in FXR activity. […] The assay is according to the manufacturer's instructions. In brief, the assay was performed in white, 96 well plates using final volume of 100 ul containing cells with different doses of compounds. Retrieve Reporter Cells from −80° C. storage. Perform a rapid thaw of the frozen cells by transferring a 10 ml volume of 37° C. cell recovery medium into the tube of frozen cells. Recap the tube of Reporter Cells and immediately place it in a 37° C. water bath for 5-10 minutes. Retrieve the tube of Reporter Cell Suspension from the water bath. Sanitize the outside surface of the tube with a 70% alcohol swab, and then transfer it into the cell culture hood. Dispense 90 μl of cell suspension into each well of the 96-well Assay Plate. Transfer the plate into 37° C. incubator, allowing the cells adherent to the bottom of the well. Dilute compounds in Dilution Plate (DP), and administrate to cells at Assay Plate (AP). DMSO content of the samples was kept at 0.2%. Cells were incubated for additional 22 hours before luciferase activities were measured. Thirty minutes before intending to quantify FXR activity, remove Detection Substrate and Detection Buffer from the refrigerator and place them in a low-light area so that they may equilibrate to room temperature. Remove the plate's lid and discard all media contents by ejecting it into an appropriate waste container. Gently tap the inverted plate onto a clean absorbent paper towel to remove residual droplets. Cells will remain tightly adhered to well bottoms. Add 100 ul of luciferase detection reagent to each well of the assay plate. Allow the assay plate to rest at room temperature for at least 5 minutes following the addition of LDR. Set the instrument (Envision) to perform a single 5 second “plate shake” prior to reading the first assay well. Read time may be 0.5 second (500 mSec) per well.
On the technique in general: In a reporter assay the amount or activity of a reporter protein is the signal.

[1] abbreviates: Human FXR (NR1H4) reporter assay, potency ranges.

Turning to `COc1cc(C(=O)NCC(=O)O)cc2sc(N3C4CCC3CC(NCc3c(-c5c(Cl)cccc5Cl)noc3C3CC3)C4)nc12` (centres unmarked) [Example 200-11], the Emax (CHO; read-out: Efficacy (%)) was found to be 75%. This compound also returned an EC50 under setting [1] of 1 to 100 nM.
In the case of `O=C(NS(=O)(=O)C1CC1)c1cc(F)c(N2C3CCC2CC(NCc2c(-c4ccccc4OC(F)(F)F)noc2C2CC2)C3)c(F)c1` (centres unmarked) [Example 900-11], the Emax (CHO; read-out: Efficacy (%)) is 70.5%. In addition, the EC50 under setting [1] fell in the range of 1 to 100 nM.
On to `O=C(NS(=O)(=O)C1CC1)c1cnc2nc(N3C4CCC3CC(NCc3c(-c5c(Cl)cccc5Cl)noc3C3CC3)C4)sc2n1` (centres unmarked) [Example 400-25], for which, for the setting “CHO; read-out: Efficacy (%)”, the Emax was 72%. This compound yielded a concentration for a half-maximal effect (EC50) under setting [1] of 1 to 100 nM.
In the case of `CCOC(=O)c1ccc2nc(N(C)C3CCC(OCc4c(-c5c(Cl)cccc5Cl)noc4C4CC4)CC3)sc2c1` (centres unmarked) [Example 169], for the setting “CHO; read-out: Efficacy (%)”, the Emax stood at 38%. This compound also showed an EC50 under setting [1] greater than 1000 nM.
Regarding `CC(C)Oc1cc(C(=O)NS(=O)(=O)N2CCCCC2)cc2sc(N3C4CCC3CC(NCc3c(-c5c(Cl)cccc5Cl)noc3C3CC3)C4)nc12` (centres unmarked) [Example 400-20], the Emax (CHO; read-out: Efficacy (%)) came out at 43.6%. Further, the EC50 under setting [1] was 1 to 100 nM.
For the compound `O=C(NS(=O)(=O)c1ccccc1)c1ccc2nc(N3C4CCC3CC(NCc3c(-c5c(Cl)cccc5Cl)noc3C3CC3)C4)sc2c1` (centres unmarked) [Example 257], the Emax (CHO; read-out: Efficacy (%)) came out at 203%. The compound also displayed an EC50 under setting [1] of 1 to 100 nM.
Turning to `Cc1cc2nc(N3C4CCC3CC(NCc3c(-c5c(Cl)cccc5Cl)noc3C3CC3)C4)sc2cc1C(=O)O` (centres unmarked) [Example 194], where the note is “CHO; read-out: Efficacy (%)”, the Emax came out at 81%. Under setting [1], this compound came in with a half-maximal effective concentration (EC50) of less than 1 nM.
`O=C(O)c1ccc2nc(N3C4CCC3CC(NCc3c(-c5c(F)cccc5F)noc3C3CC3)C4)sc2c1` (centres unmarked) [Example 1411]: the Emax (CHO; read-out: Efficacy (%)) turned out to be 94.7%. Under setting [1], this compound showed an EC50 of 1 to 100 nM.
`O=C(NS(=O)(=O)N1CCOCC1)c1ccc2nc(N3C4CCC3CC(NCc3c(-c5c(Cl)cccc5Cl)noc3C3CC3)C4)sc2c1` (centres unmarked) [Example 234]: under “CHO; read-out: Efficacy (%)”, the Emax stood at 146%. In addition, under setting [1], the EC50 was in the range of 100 to 1000 nM.
On to `CC1(S(=O)(=O)NC(=O)c2cnc3nc(N4C5CCC4CC(NCc4c(-c6c(Cl)cccc6Cl)noc4C4CC4)C5)sc3n2)CC1` (centres unmarked) [Example 400-26], for which the Emax (CHO; read-out: Efficacy (%)) came out at 97.2%. For the same compound, the EC50 under setting [1] is less than 1 nM.
The corresponding values for `COc1nc2cc(C(=O)NS(=O)(=O)C3(C)CC3)ccc2nc1N1C2CCC1CC(NCc1c(-c3c(Cl)cccc3Cl)noc1C1CC1)C2` (centres unmarked) [Example 342] are 76% and 1 to 100 nM.
The like results for `COC(=O)c1cc(F)c2nc(N3CCC(NCc4c(-c5ccccc5OC(F)(F)F)noc4C4CC4)CC3)sc2c1` [Example 641] were, in that order, 40% and 100 to 1000 nM.
The like results for `O=C(NS(=O)(=O)N1CCCCC1)c1ccc2nc(N3C4CCC3CC(NCc3c(-c5c(Cl)cccc5Cl)noc3C3CC3)C4)sc2c1` (centres unmarked) [Example 228] were, in that order, 140% and 1 to 100 nM.
Turning to `O=C(NS(=O)(=O)C1CC1)c1ccc2nc(N3CCC(NCc4c(-c5c(Cl)cccc5Cl)noc4C4CC4)CC3)sc2c1` [Example 291], the Emax (CHO; read-out: Efficacy (%)) was found to be 171%. Under setting [1], this compound showed an EC50 of 1 to 100 nM.
On to `COC(=O)c1cccc(N2CCN(Cc3c(-c4c(Cl)cccc4Cl)noc3C3CC3)CC2)c1` [Example 187], for which the Emax (CHO, read-out: Efficacy (%)) amounted to 64%. Under setting [1], the concentration giving a half-maximal response (EC50) is greater than 1000 nM.
Turning to `COC(=O)c1cc(F)c2nc(N3C4CCC3CC(NCc3c(-c5c(Cl)cccc5Cl)noc3C3CC3)C4)sc2c1` (centres unmarked) [Example 3], the Emax (CHO; read-out: Efficacy (%)) came to 137%. This compound also returned a 50% effective concentration (EC50) under setting [1] of 1 to 100 nM.
For the compound `CC(C)(C)Oc1ccc(S(=O)(=O)NC(=O)OCc2ccc3nc(N4C5CCC4CC(NCc4c(-c6c(Cl)cccc6Cl)noc4C4CC4)C5)sc3c2)cc1` (centres unmarked) [Example 153], the Emax (CHO; read-out: Efficacy (%)) is 113%. Under setting [1], this compound yielded an EC50 of 1 to 100 nM.
For `CC1(S(=O)(=O)NC(=O)c2cc(F)c3nc(N4CCC(NCc5c(-c6c(Cl)cccc6Cl)noc5C5CC5)CC4)sc3c2)CC1` [Example 400-10], the Emax (CHO; read-out: Efficacy (%)) turned out to be 68%. Besides, the 50% effective concentration (EC50) under setting [1] was 100 to 1000 nM.
The corresponding values for `O=C(O)c1ccc2nc(N3C4CCC3CN(Cc3c(-c5c(Cl)cccc5Cl)noc3C3CC3)C4)sc2c1` [Example 176] are 228% and 100 to 1000 nM.

The term EC50 denotes the concentration that produces a half-maximal response. A low value points to greater potency.
